The text below walks through data of PubChem BioAssay AID328 (DTP/NCI, 2004).

Where “and” joins values, the source holds several entries; their conditions need not be identical. Equal entries are not always repeated. Inconclusive results and toxic doses are left out.

The test concerns BDF1 mice, P388 leukemia ip, median survival T/C. The test can be described thus: NCI In Vivo Anticancer Drug Screen. Data for tumor model P388 Leukemia (intraperitoneal) in B6D2F1 (BDF1) mice. The settings on record: endpoint: median survival time, higher = longer survival. As to the method:
The antitumor activity of compounds was measured in mice bearing transplantable tumors. Survival or tumor size were measured and the results are expressed as the measurement made in the treated group (T) divided by the measurement made in the vehicle treated control group (C). The tumor model used in this assay is P388 Leukemia (intraperitoneal) in B6D2F1 (BDF1) mice

Where [1] appears, read: dose: 50.0 mg/kg/injection, schedule: Q01DX009 (ip), vehicle: saline.
Where [2] appears, read: dose: 50.0 mg/kg/injection, schedule: Q04DX003 (ip), vehicle: saline.
Setting [3] is: dose: 100.0 mg/kg/injection, schedule: Q01DX009 (ip), vehicle: saline.
Where [4] appears, read: dose: 100.0 mg/kg/injection, schedule: Q04DX003 (ip), vehicle: saline.
Setting [5] is: dose: 200.0 mg/kg/injection, schedule: Q01DX009 (ip), vehicle: saline.
The mark [6] stands for this setting: dose: 200.0 mg/kg/injection, schedule: Q04DX003 (ip), vehicle: saline.
Where [7] appears, read: dose: 400.0 mg/kg/injection, schedule: Q04DX003 (ip), vehicle: saline.
The mark [8] stands for this setting: dose: 12.5 mg/kg/injection, schedule: Q01DX009 (ip), vehicle: water.
Setting [9] is: dose: 25.0 mg/kg/injection, schedule: Q01DX009 (ip), vehicle: water.
The mark [10] stands for this setting: dose: 50.0 mg/kg/injection, schedule: Q01DX009 (ip), vehicle: water.
The mark [11] stands for this setting: dose: 100.0 mg/kg/injection, schedule: Q01DX001 (ip), vehicle: saline with Tween-80.
Setting [12] is: dose: 200.0 mg/kg/injection, schedule: Q01DX001 (ip), vehicle: saline with Tween-80.
Setting [13] is: dose: 400.0 mg/kg/injection, schedule: Q01DX001 (ip), vehicle: saline with Tween-80.
[14] abbreviates: dose: 100.0 mg/kg/injection, schedule: Q04DX003 (ip), vehicle: saline with Tween-80.
[15] abbreviates: dose: 200.0 mg/kg/injection, schedule: Q04DX003 (ip), vehicle: saline with Tween-80.
Where [16] appears, read: dose: 400.0 mg/kg/injection, schedule: Q04DX003 (ip), vehicle: saline with Tween-80.
The mark [17] stands for this setting: dose: 200.0 mg/kg/injection, schedule: Q01DX009 (ip), vehicle: saline with Tween-80.

On to `CC(=O)OCC(=O)C1CCC=CC1OC(C)=O` (configuration not stated), for which the T/C is 92 % of control (dose: 25.0 mg/kg/injection, schedule: Q01DX009 (ip), vehicle: saline); 104 % of control under setting [1]; 95 % of control under setting [2]; 98 % of control under setting [3]; 101 % of control under setting [4]; 104 % of control under setting [5]. Besides, the T/C reads like this: under setting [6], 98 % of control and 120 % of control; (dose: 400.0 mg/kg/injection, schedule: Q01DX009 (ip), vehicle: saline) 88 % of control; under setting [7], 93 % of control and 117 % of control.

As to `Nc1cc(Cl)ccc1O`, the T/C under setting [1] was 114 % of control, the T/C under setting [3] was 97 % of control and the T/C under setting [5] was 116 % of control.

Take `c1ccc(-c2cc[s+]s2)cc1`: the T/C was 110 % of control and 114 % of control (dose: 3.12 mg/kg/injection, schedule: Q01DX009 (ip), vehicle: water); 94 % of control and 103 % of control and 120 % of control (dose: 6.25 mg/kg/injection, schedule: Q01DX009 (ip), vehicle: water); 100 % of control and 103 % of control and 123 % of control under setting [8]; 116 % of control (dose: 12.5 mg/kg/injection, schedule: Q04DX003 (ip), vehicle: water); 100 % of control under setting [9]; 104 % of control (dose: 25.0 mg/kg/injection, schedule: Q04DX003 (ip), vehicle: water). The T/C under setting [10] is 92 % of control and 116 % of control; the T/C (dose: 200.0 mg/kg/injection, schedule: Q04DX003 (ip), vehicle: water) is 101 % of control.

Consider `O=C(CBr)c1ccc(I)cc1`, for which the T/C was 109 % of control (dose: 13.0 mg/kg/injection, schedule: Q01DX010 (ip), vehicle: saline); 109 % of control (dose: 26.0 mg/kg/injection, schedule: Q01DX010 (ip), vehicle: saline); 90 % of control (dose: 43.0 mg/kg/injection, schedule: Q01DX010 (ip), vehicle: saline).

As to `O=S(=O)(O/C1=C/CCCCCC1)C(F)(F)C(F)(F)C(F)(F)C(F)(F)F`, the T/C is, setting by setting: under setting [1], 107 % of control; under setting [3], 109 % of control; under setting [5], 109 % of control.

Take `CCCCCCCCCCCCCCCCCC[N+]1([O-])CCCC1`: the T/C was 100 % of control under setting [8], 93 % of control under setting [9] and 93 % of control under setting [10].

In the case of `Cc1cc(C)c(S(=O)(=O)OCCCl)c(C)c1`, the T/C was 106 % of control (dose: 50.0 mg/kg/injection, schedule: Q01DX005 (ip), vehicle: Klucel (hydroxypropylcellulose) (HPC)) and 95 % of control (dose: 100.0 mg/kg/injection, schedule: Q01DX005 (ip), vehicle: Klucel (hydroxypropylcellulose) (HPC)).

Consider `COc1ccc(Cl)cc1NC1=CC(c2ccc(Cl)cc2)OC1=O` (configuration not stated), for which the T/C under setting [11] is 100 % of control, the T/C under setting [12] was 100 % of control and the T/C under setting [13] was 95 % of control.

`C=C(Cl)CSCCCS`: the T/C (dose: 130.0 mg/kg/injection, schedule: Q01DX009 (ip), vehicle: saline) was 95 % of control; the T/C under setting [5] is 104 % of control; the T/C (dose: 300.0 mg/kg/injection, schedule: Q01DX009 (ip), vehicle: saline) is 118 % of control.

`CC1(C)N=C(c2ccc3ccccc3c2)CC1C#N` (configuration not stated): the T/C under setting [11] was 100 % of control, the T/C under setting [12] was 100 % of control and the T/C under setting [13] is 95 % of control.

`C1=CC2C3CC(OCCOC4CC5CC4C4CC=CC54)C(C3)C2C1` (configuration not stated): the T/C reads like this: under setting [14], 115 % of control; under setting [15], 115 % of control; under setting [16], 120 % of control.

For `CC(=O)NC1=C(N2CC2C)C(=O)C(NC(C)=O)=C(N2CC2C)C1=O` (configuration not stated), the T/C (dose: 0.62 mg/kg/injection, schedule: Q01DX009 (ip), vehicle: saline) is 119 % of control; the T/C (dose: 1.25 mg/kg/injection, schedule: Q01DX009 (ip), vehicle: saline) is 114 % of control and 115 % of control; the T/C (dose: 4.4 mg/kg/injection, schedule: Q04DX003 (ip), vehicle: saline) was 118 % of control; the T/C (dose: 5.0 mg/kg/injection, schedule: Q01DX009 (ip), vehicle: saline) was 233 % of control and 215 % of control; the T/C (dose: 5.56 mg/kg/injection, schedule: Q01DX009 (ip), vehicle: saline) is 159 % of control; the T/C (dose: 6.6 mg/kg/injection, schedule: Q04DX003 (ip), vehicle: saline) is 104 % of control. In addition, the T/C (dose: 8.33 mg/kg/injection, schedule: Q01DX009 (ip), vehicle: saline) is 236 % of control; the T/C (dose: 11.0 mg/kg/injection, schedule: Q04DX003 (ip), vehicle: saline) is 166 % of control and 215 % of control; the T/C (dose: 12.5 mg/kg/injection, schedule: Q01DX009 (ip), vehicle: saline) was 163 % of control; the T/C (dose: 15.0 mg/kg/injection, schedule: Q04DX003 (ip), vehicle: saline) is 163 % of control; the T/C (dose: 16.5 mg/kg/injection, schedule: Q04DX003 (ip), vehicle: saline) was 230 % of control and 222 % of control; the T/C (dose: 18.7 mg/kg/injection, schedule: Q01DX009 (ip), vehicle: saline) was 90 % of control. Further, the T/C is 255 % of control and 110 % of control (dose: 25.0 mg/kg/injection, schedule: Q04DX003 (ip), vehicle: saline); 183 % of control (dose: 37.5 mg/kg/injection, schedule: Q04DX003 (ip), vehicle: saline); 86 % of control and 100 % of control under setting [2].

Regarding `CC(=O)NC(Cc1ccc(F)cc1)C(=O)O` (configuration not stated), under setting [17], the T/C was 121 % of control.

In the case of `CC1CCC2N(C1)CC1C(C(O)C(O)C3(O)C1CC14OC5(O)C(O)CCC1(C)C5CC(O)C34)C2(C)O` (configuration not stated), the T/C reads like this: (dose: 25.0 mg/kg/injection, schedule: Q01DX010 (ip), vehicle: carboxymethylcellulose (CMC)) 100 % of control; (dose: 50.0 mg/kg/injection, schedule: Q01DX010 (ip), vehicle: carboxymethylcellulose (CMC)) 115 % of control; (dose: 100.0 mg/kg/injection, schedule: Q01DX010 (ip), vehicle: carboxymethylcellulose (CMC)) 110 % of control.

As for `Cc1c(Cl)cccc1NC(=O)Oc1ccc(Cl)cc1Cl`, the T/C is 109 % of control (dose: 50.0 mg/kg/injection, schedule: Q04DX003 (ip), vehicle: saline with Tween-80); 122 % of control under setting [14]; 113 % of control under setting [15].

With `COC(=O)CCCc1ccc(OC)c(OC)c1`, the T/C runs as follows: (dose: 12.5 mg/kg/injection, schedule: Q01DX009 (ip), vehicle: saline with Tween-80) 96 % of control; (dose: 25.0 mg/kg/injection, schedule: Q01DX009 (ip), vehicle: saline with Tween-80) 100 % of control; (dose: 50.0 mg/kg/injection, schedule: Q01DX009 (ip), vehicle: saline with Tween-80) 97 % of control and 123 % of control; (dose: 100.0 mg/kg/injection, schedule: Q01DX009 (ip), vehicle: saline with Tween-80) 97 % of control and 113 % of control; under setting [17], 105 % of control.

As for `CCOC(=O)C(N)CSC(c1ccccc1)(c1ccccc1)c1ccccc1` (configuration not stated), the T/C was 95 % of control (dose: 9.6 mg/kg/injection, schedule: Q04DX003 (ip), vehicle: saline); 100 % of control (dose: 14.0 mg/kg/injection, schedule: Q04DX003 (ip), vehicle: saline); 122 % of control (dose: 33.0 mg/kg/injection, schedule: Q04DX003 (ip), vehicle: saline); 155 % of control under setting [2]; 175 % of control under setting [4]; 181 % of control (dose: 132.0 mg/kg/injection, schedule: Q04DX003 (ip), vehicle: saline). For the same molecule, the T/C was 181 % of control and 215 % of control under setting [6]; 163 % of control (dose: 300.0 mg/kg/injection, schedule: Q04DX003 (ip), vehicle: saline).

Regarding `CCCCCCCCCCCC1CCCC(C)N1` (configuration not stated), the T/C runs as follows: under setting [4], 100 % of control; under setting [6], 95 % of control; under setting [7], 91 % of control and 95 % of control.

Turning to `Clc1ccccc1CCCBr`, the T/C by setting is: under setting [14], 95 % of control; under setting [15], 100 % of control; under setting [16], 105 % of control.

Regarding `O=[N+]([O-])c1ccc(S(=O)(=O)Nc2ccccc2-c2ccccc2)cc1`, the T/C is, setting by setting: under setting [14], 96 % of control; under setting [15], 96 % of control; under setting [16], 100 % of control.
